Patent US9303000B2, “Olefin containing nuclear transport modulators and uses thereof” (KARYOPHARM THERAPEUTICS INC., priority 2011, dated 2016)
Like-named read-outs stand apart in the source and are kept apart here.

Experiments:
[1] = biological target: T1, Crm1 (Homo sapiens, UniProt O14980); experiment: Inhibition of nuclear export (RevGFP assay) / MTT cytotoxicity, Table 1
Experimental: (§1) The evaluation of the affinity of compounds for the Crm1 protein was determined in the RevGFP assay.
(§2) In this assay, U2OS-RevGFP cells are seeded onto clear-bottom, black, 384-well plates the day before the experiment. Compounds are serially diluted 1:2 starting from 40 μM in a separate 384-well plate in DMEM, and then transferred onto cells. Cells are incubated with compound for ˜1 hr before fixation with 3.7% formaldehyde and nuclei staining with Hoechst 33258. The amount of GFP in cell nuclei will be measured and compound IC50s determined (Kau et al, 2003).
(§3) The MTT cell proliferation assay was used to study the cytotoxic properties of the compounds. The assay was performed according to the method described by Roche Molecular Biochemicals with minor modifications. The assay is based on the cleavage of the tetrazolium salt, MTT, in the presence of an electron-coupling reagent. The water-insoluble formazan salt produced must be solubilized in an additional step. Cells, grown in a 96-well tissue culture plate, are incubated with the MTT solution for approximately 4 hours. After this incubation period, a water-insoluble formazan dye is formed. After solubilization, the formazan dye is quantitated using a scanning multi-well spectrophotometer (ELISA reader). […] The cells were seeded at 1.5×10^4 cells in each well of 96-well plate in 200 μL of fresh culture medium and were allowed to attach for overnight. The stock solutions of the compounds were diluted in cell culture medium to obtain eight concentrations of each drug, ranging from 1 nM to 20 μM. After 72 h of treatment the medium was aspirated and the cells were washed once with sterile 1×PBS. Each plate contained the samples, negative control and blank. The DMSO at less than 1% v/v was used as a negative control. […] The following formula was used to calculate the percent of inhibition: Inhibition (%)=(1−(ODo/OD))×100.

[2] = test system: HCT-116 tumor cells; experiment: HCT-116 colorectal carcinoma xenograft model; format: in vivo, mice
Experimental: FIG. 1 is a graph depicting the results of an HCT-116 colorectal carcinoma xenograft model. HCT-116 cells were inoculated into female athymic Balb c. nu^+/nu^+ mice. Once tumors reached an average volume of 200 mm^3, the animals were dosed with vehicle, 25 mg/kg 5-fluorouracil intraperitoneally and 75 mg/kg I-29 subcutaneously.
FIG. 2 is a graph depicting the results of an HCT-116 colorectal carcinoma xenograft model. HCT-116 cells were inoculated into female athymic Balb c. nu^+/nu^+ mice. Once tumors reached an average volume of 100 mm^3 the animals were dosed with vehicle, 50 mg/kg 5-fluorouracil intraperitoneally and 50 and 100 mg/kg I-34 orally. […] Mice were euthanized on Day 26 due to 20% weight loss. At Day 37, I-34 administered QDX5/week at 50 mg/kg inhibited tumor growth by 85%.
Female balb c nude mice (nu/nu) aged 6 to 8 weeks were obtained from Charles River Laboratories and were randomly and prospectively divided into six groups of ten mice. Mice were inoculated s.c. in flanks with 1×10^6 HCT-116 tumor cells. When cells reached 100-200 mm^3, animals were randomized into treatment groups of 5-10 mice each, excluding mice with the largest and smallest tumors. Mice were treated with vehicle, standard of care drugs (5-FU) or compounds of the invention at the indicated doses and regimen. Animals' weights and condition were recorded daily, and tumors were measured daily. On Day 37 (2 hours after the final dose), all mice were sacrificed, plasma and tumor tissue were collected for PK/PD analysis. Tumors were divided in 4 sections (3, flash-frozen in separate vials and 1 fixed in formalin for paraffin block preparation).
HCT-116 Colorectal tumor cells (ATCC# CCL-247) were grown in the DMEM tissue culture media with 10% fetal bovine serum and 1% penicillin/streptomycin. Cells were routinely trypsinized and passaged 1:4. On the day of implantation, cells were washed in PBS, trypsinized and resuspended in complete media. Cells were washed 3× in serum free medium. Cells were resuspended to a density of 1×10^7 cells/ml prior to being implanted s.c. into mice in a volume of 0.1 mL using a 23G needle.
Tumors were monitored daily. Tumors appearing exceeding 1500 mm^3 were measured, and animals with tumors greater than 1500 mm^3 and/or tumors that became necrotic and/or hindered movement were euthanized. Tumors were measured twice weekly by measuring each tumor in 2 dimensions, along the largest dimension (length, L) and perpendicular to this dimension (width, W). Tumor weights were calculated using the standard formula: (L×W^2)/2. The mean tumor weight and standard error of the mean were calculated for each group at each time point.
Statistical differences between treatment groups were determined using appropriate statistical techniques. A one-way ANOVA or ANOVA on ranks was used to evaluate the area-under the curve for weight gain and tumor volume.

[3] = test system: MM1.S cells; experiment: MM1.S multiple myeloma xenograft model; format: in vivo, mice
Experimental: FIG. 3 is a graph depicting the results of a MM1.S multiple myeloma model. MM1.S cells were inoculated into female athymic Balb c. nu^+/nu^+mice. Once tumors reached an average volume of 780 mm^3 the animals were dosed with vehicle and 75 mg/kg I-1 subcutaneously. Following 3 doses I-1 caused 50% reduction in tumor growth in a statistically significant manner.
FIG. 4 is a graph depicting the results of a MM1.S multiple myeloma model. MM1.S cells were inoculated into female athymic nu^+/nu^+ mice. Once tumors reached an average volume of 1400 mm^3 the animals were dosed with vehicle or 50 mg/kg I-29 subcutaneously every day. On the fourth day of dosing, vehicle group animals (n=10) reached an average volume of 2300 mm^3 and had to be euthanized due to tumor burden and poor health.
105 female athymic nude mice (8-9 weeks old, Harlan, USA) were grouped into […]. Animals were randomized such that the group average tumor volume was between 100-200 mm^3. Group average body weights were matched as closely as possible once average tumor volumes were randomized. The live-phase portion of this study will be 28 days in duration from the start of until the average group tumor volume reaches 2,000 mm^3, whichever comes first. Mice are to be euthanized with samples collected as and when they individually reach a tumor volume of approximately 2,000 mm^3.
MM1s Cell Culture. […]
Tumor volumes were monitored three times per week throughout the study (typically Monday, Wednesday and Friday) and calculated using the formula: Tumor volume=½(a^2 b); where a=width (smallest dimension) and b=length. […]
Animals were monitored as a group and their tumor volumes were measured three times per week at the same time of day. […]

[4] = biological target: T1, Crm1
Experimental: as §1, §2, §3

[5] = 50 mg/kg subcutaneously every day, following 8 doses, FIG. 4

T1 sequence (O14980 whole entry): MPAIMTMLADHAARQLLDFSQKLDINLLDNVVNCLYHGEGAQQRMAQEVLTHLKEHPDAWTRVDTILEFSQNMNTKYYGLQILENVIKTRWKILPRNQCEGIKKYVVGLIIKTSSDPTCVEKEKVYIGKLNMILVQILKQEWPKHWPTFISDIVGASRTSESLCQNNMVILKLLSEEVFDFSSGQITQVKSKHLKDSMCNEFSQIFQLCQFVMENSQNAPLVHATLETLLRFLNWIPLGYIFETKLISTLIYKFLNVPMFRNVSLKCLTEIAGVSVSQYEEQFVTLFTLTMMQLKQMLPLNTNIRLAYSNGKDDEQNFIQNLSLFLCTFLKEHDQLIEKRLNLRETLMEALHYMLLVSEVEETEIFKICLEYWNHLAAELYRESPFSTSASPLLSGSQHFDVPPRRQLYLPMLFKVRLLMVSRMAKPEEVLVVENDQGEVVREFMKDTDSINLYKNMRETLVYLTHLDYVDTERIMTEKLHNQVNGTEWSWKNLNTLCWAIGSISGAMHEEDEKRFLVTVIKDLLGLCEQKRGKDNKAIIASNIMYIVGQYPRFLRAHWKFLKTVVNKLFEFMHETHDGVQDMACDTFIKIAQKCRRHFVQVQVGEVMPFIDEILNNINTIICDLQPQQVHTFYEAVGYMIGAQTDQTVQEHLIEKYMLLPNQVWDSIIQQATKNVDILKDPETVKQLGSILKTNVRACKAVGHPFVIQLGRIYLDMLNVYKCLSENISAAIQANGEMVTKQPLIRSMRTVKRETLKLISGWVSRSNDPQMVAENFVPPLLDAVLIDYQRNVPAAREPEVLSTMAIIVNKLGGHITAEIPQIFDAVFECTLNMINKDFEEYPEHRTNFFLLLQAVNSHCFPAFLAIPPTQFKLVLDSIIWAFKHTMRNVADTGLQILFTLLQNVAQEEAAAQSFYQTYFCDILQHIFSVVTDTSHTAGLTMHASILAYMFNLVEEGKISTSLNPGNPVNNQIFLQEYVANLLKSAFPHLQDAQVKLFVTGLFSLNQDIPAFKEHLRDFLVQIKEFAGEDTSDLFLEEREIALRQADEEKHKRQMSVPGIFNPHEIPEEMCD

Compound | IC50 [1] [nM] | other results
COc1cc(-c2ncn(/C=C\c3ccccc3)n2)cc(C(F)(F)F)c1 [Compound I-38, (Z)-3-(3-methoxy-5-(trifluoromethyl)phenyl)-1-styryl-1H-1,2,4-triazole] | > 10000 | –
FC(F)(F)c1cc(-c2ncn(/C=C\c3nnco3)n2)cc(C(F)(F)F)c1 [Compound I-34, (Z)-2-(2-(3-(3,5-bis(trifluoromethyl)phenyl)-1H-1,2,4-triazol-1-yl)vinyl)-1,3,4-oxadiazole] | < 1000 | inhibition of tumor growth ([2]; 50 mg/kg orally QDX5/week, Day 37, FIG. 2): 85%; weight loss ([2]; 100 mg/kg orally QDX5/week, Day 26, mice euthanized, FIG. 2): 20%; reduction of tumor growth ([2]; 100 mg/kg orally QDX5/week, Day 26, FIG. 2): complete reduction of tumor growth
COc1cc(-c2ncn(/C=C\c3nnc(C)o3)n2)cc(C(F)(F)F)c1 [Compound I-2, (Z)-2-(2-(3-(3-methoxy-5-(trifluoromethyl)phenyl)-1H-1,2,4-triazol-1-yl)vinyl)-5-methyl-1,3,4-oxadiazole] | < 1000 | –
CC(C)Oc1cc(Cl)cc(-c2ncn(/C=C\c3nnco3)n2)c1 [Compound I-28, (Z)-2-(2-(3-(3-chloro-5-isopropoxyphenyl)-1H-1,2,4-triazol-1-yl)vinyl)-1,3,4-oxadiazole] | < 1000 | –
COc1cc(-c2ncn(/C=C\c3ccccn3)n2)cc(C(F)(F)F)c1 [Compound I-21, (Z)-2-(2-(3-(3-methoxy-5-(trifluoromethyl)phenyl)-1H-1,2,4-triazol-1-yl)vinyl)pyridine] | > 10000 | –
COc1cc(-c2ncn(/C=C\c3nnco3)n2)cc(C(F)(F)F)c1 [Compound I-1, (Z)-2-(2-(3-(3-methoxy-5-(trifluoromethyl)phenyl)-1H-1,2,4-triazol-1-yl)vinyl)-1,3,4-oxadiazole] | < 1000 | reduction in tumor growth ([3]; 75 mg/kg subcutaneously, following 3 doses, FIG. 3): 50%
Oc1cc(-c2ncn(/C=C\c3nnco3)n2)cc(C(F)(F)F)c1 [Compound I-36, (Z)-3-(1-(2-(1,3,4-oxadiazol-2-yl)vinyl)-1H-1,2,4-triazol-3-yl)-5-(trifluoromethyl)phenol] | < 1000 | –
CC(C)Oc1cc(-c2ncn(/C=C\c3nnco3)n2)cc(C(F)(F)F)c1 [Compound I-29, (Z)-2-(2-(3-(3-isopropoxy-5-(trifluoromethyl)phenyl)-1H-1,2,4-triazol-1-yl)vinyl)-1,3,4-oxadiazole] | < 1000 | reduction in tumor growth ([2]; 75 mg/kg subcutaneously, 5 times/week, following 3 weeks of dosing, FIG. 1): 50%; animals still alive (survival) [3, 5]: 10 out of 12; reduction in tumor growth [3, 5]: 50%
O=c1[nH]cc(F)c(=O)[nH]1 [Compound 5-FU, 5-fluorouracil, reference compound] | – | efficacy on tumor growth ([2]; 25 mg/kg intraperitoneally, 3 weeks of dosing, FIG. 1): did not display efficacy; inhibition of tumor growth compared to vehicle group ([2]; 50 mg/kg intraperitoneally, Day 37, FIG. 2): no inhibition of tumor growth was observed; condition of animals ([2]; 50 mg/kg intraperitoneally, by Day 37, FIG. 2): euthanized due to poor condition; inhibition of tumor growth ([2]; 50 mg/kg intraperitoneally, first 3 weeks, FIG. 2): inhibited tumor growth during the first 3 weeks in a statistically significant manner
CC(C)Oc1cc(-c2ncn(/C=C\c3nnco3)n2)cc(C(F)(F)F)n1 [Compound I-30, (Z)-2-(2-(3-(2-isopropoxy-6-(trifluoromethyl)pyridin-4-yl)-1H-1,2,4-triazol-1-yl)vinyl)-1,3,4-oxadiazole] | < 1000 | –
Clc1cccc(-c2ncn(/C=C\c3nnco3)n2)c1 [Compound I-26, (Z)-2-(2-(3-(3-chlorophenyl)-1H-1,2,4-triazol-1-yl)vinyl)-1,3,4-oxadiazole] | < 1000 | –
CS(=O)(=O)c1cc(-c2ncn(/C=C\c3nnco3)n2)cc(C(F)(F)F)c1 [Compound I-33, (Z)-2-(2-(3-(3-(methylsulfonyl)-5-(trifluoromethyl)phenyl)-1H-1,2,4-triazol-1-yl)vinyl)-1,3,4-oxadiazole] | < 1000 | –
COc1cc(-c2ncn(/C=C\c3nnco3)n2)cc(Cl)n1 [Compound I-10, (Z)-2-(2-(3-(2-chloro-6-methoxypyridin-4-yl)-1H-1,2,4-triazol-1-yl)vinyl)-1,3,4-oxadiazole] | < 1000 | –
(Z)-2-(2-(3-(3-chloro-5-(trifluoromethoxy)phenyl)-1H-1,2,4-triazol-1-yl)vinyl)-1,3,4-oxadiazole [Compound I-32] | – | IC50 [4]: < 1000 nM
N#Cc1cc(-c2ncn(/C=C\c3nnco3)n2)cc(C(F)(F)F)c1 [Compound I-35, (Z)-3-(1-(2-(1,3,4-oxadiazol-2-yl)vinyl)-1H-1,2,4-triazol-3-yl)-5-(trifluoromethyl)benzonitrile] | < 1000 | –
CC(C)Oc1cc(-c2ncn(/C=C\c3ccccc3)n2)cc(C(F)(F)F)c1 [Compound I-39, (Z)-3-(3-isopropoxy-5-(trifluoromethyl)phenyl)-1-styryl-1H-1,2,4-triazole] | > 10000 | –
CC(C)Oc1cc(-c2ncn(/C=C\c3ccccn3)n2)cc(C(F)(F)F)c1 [Compound I-37, (Z)-2-(2-(3-(3-isopropoxy-5-(trifluoromethyl)phenyl)-1H-1,2,4-triazol-1-yl)vinyl)pyridine] | < 1000 | –
CC(C)Oc1cc(-c2ncn(/C=C\c3nnco3)n2)cc(Cl)n1 [Compound I-31, (Z)-2-(2-(3-(2-chloro-6-isopropoxypyridin-4-yl)-1H-1,2,4-triazol-1-yl)vinyl)-1,3,4-oxadiazole] | < 1000 | –
Clc1cccc(-c2ncn(/C=C/c3nnco3)n2)c1 [Compound I-27, (E)-2-(2-(3-(3-chlorophenyl)-1H-1,2,4-triazol-1-yl)vinyl)-1,3,4-oxadiazole] | 1000 to 10000 | –
